Assay results reported in US11649255B2, “Indazoles as hematopoietic progenitor kinase 1 (HPK1) inhibitors and methods using same” (1st Biotherapeutics, Inc., priority 2020, dated 2023).
Where two headings read alike, the source gives them in different places.

What was measured:
recombinant human HPK1 = recombinant human HPK1 (Homo sapiens (Human), UniProt Q92918); experiment: HPK1 kinase assay (ADP-Glo); format: biochemical; conditions: 25 μM ATP, MBP substrate
Procedure, shortened: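 Activity was read as ADP formed, detected by ADP-Glo luminescence after the reaction of 5 ng recombinant human HPK1 with MBP and ATP (stocks 0.5 μg/μl and 25 μM) for 40 min at 30 °C. Buffer was Tris pH 7.5 with MgCl2, BSA and DTT, with compound in 0.5% DMSO. IC50 came from inhibition curves.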

[1] = test system: human peripheral blood pan T cells; experiment: IFNγ and IL-2 analysis of human peripheral pan T cells; format: cell-based; conditions: T-cell, CD3/CD28 bead stimulation, 100 nM Prostaglandin E2, 24 hr
Procedure, shortened: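 Human peripheral blood pan T cells (8×10^4) were preincubated 1 h with compounds plus 100 nM PGE2. They were then activated with anti-CD3/CD28 Dynabeads at a 1:3 cell:bead ratio. IFNγ and IL-2 were measured on a Meso Scale Discovery platform.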

[2] = IFNγ secretion, read-out: IFNγ (EC50)
[3] = IL-2 secretion, read-out: IL-2 (EC50)

recombinant human HPK1, sequence (Q92918 whole entry): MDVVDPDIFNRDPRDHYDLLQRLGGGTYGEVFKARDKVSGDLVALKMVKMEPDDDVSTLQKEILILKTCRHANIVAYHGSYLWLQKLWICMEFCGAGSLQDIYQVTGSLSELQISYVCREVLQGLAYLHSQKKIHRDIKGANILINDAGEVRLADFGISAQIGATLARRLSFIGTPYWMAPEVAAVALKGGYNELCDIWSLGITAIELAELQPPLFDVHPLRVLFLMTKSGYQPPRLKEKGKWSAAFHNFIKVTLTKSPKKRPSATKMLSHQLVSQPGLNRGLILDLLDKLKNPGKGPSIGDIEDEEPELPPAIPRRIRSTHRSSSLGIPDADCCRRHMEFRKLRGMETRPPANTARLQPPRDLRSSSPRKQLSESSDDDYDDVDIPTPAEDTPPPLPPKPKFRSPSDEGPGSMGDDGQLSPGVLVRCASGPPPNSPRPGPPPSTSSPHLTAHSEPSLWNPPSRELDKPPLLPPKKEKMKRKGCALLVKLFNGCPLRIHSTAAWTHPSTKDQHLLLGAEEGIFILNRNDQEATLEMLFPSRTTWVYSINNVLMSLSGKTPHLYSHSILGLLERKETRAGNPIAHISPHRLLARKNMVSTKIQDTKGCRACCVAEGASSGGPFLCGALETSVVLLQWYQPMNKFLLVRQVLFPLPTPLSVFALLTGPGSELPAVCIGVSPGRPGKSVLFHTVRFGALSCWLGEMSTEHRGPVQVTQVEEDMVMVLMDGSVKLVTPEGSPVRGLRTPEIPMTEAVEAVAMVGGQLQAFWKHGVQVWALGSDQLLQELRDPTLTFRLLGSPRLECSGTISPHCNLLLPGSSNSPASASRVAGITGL

SMILES | IC50 (recombinant human HPK1) | EC50 [1, 2] | EC50 [1, 3]
CN(C)c1c(F)c(Cl)c(-c2ccc3nc(NC(=O)[C@H]4C[C@@H]4F)cn3c2)c2cn[nH]c12 [Example 332, (1R,2S)-N-(6-(5-chloro-7-(dimethylamino)-6-fluoro-1H-indazol-4-yl)imidazo[1,2-a]pyridin-2-yl)-2-fluorocyclopropane-1-carboxamide] | < 100 nM | 200 to 1000 nM | 200 to 1000 nM
Cc1c(F)c(OCCO)c2[nH]ncc2c1-c1ccn2nc(NC(=O)[C@@H]3C[C@@H]3F)cc2c1 [Example 534, (1S,2S)-2-fluoro-N-(5-(6-fluoro-7-(2-hydroxyethoxy)-5-methyl-1H-indazol-4-yl)pyrazolo[1,5-a]pyridin-2-yl)cyclopropane-1-carboxamide] | < 100 nM | < 200 nM | –
CCOc1c(F)c(C)c(-c2ccc3nc(NC(=O)[C@@H]4C[C@@H]4F)sc3n2)c2cn[nH]c12 [Example 175, (1S,2S)-N-(5-(7-ethoxy-6-fluoro-5-methyl-1H-indazol-4-yl)thiazolo[5,4-b]pyridin-2-yl)-2-fluorocyclopropane-1-carboxamide] | < 100 nM | < 200 nM | –
CCc1c(F)c(N(C)CC)c2[nH]ncc2c1-c1ccn2nc(NC(=O)[C@@H]3C[C@@H]3F)cc2c1 [Example 525, (1S,2S)-N-(5-(5-ethyl-7-(ethyl(methyl)amino)-6-fluoro-1H-indazol-4-yl)pyrazolo[1,5-a]pyridin-2-yl)-2-fluorocyclopropane-1-carboxamide] | < 100 nM | < 200 nM | 200 to 1000 nM
CCN(C)c1c(F)c(SC)c(-c2ccn3nc(NC(=O)[C@@H]4C[C@@H]4F)cc3c2)c2cn[nH]c12 [Example 577, (1S,2S)-N-(5-(7-(ethyl(methyl)amino)-6-fluoro-5-(methylthio)-1H-indazol-4-yl)pyrazolo[1,5-a]pyridin-2-yl)-2-fluorocyclopropane-1-carboxamide] | < 100 nM | < 200 nM | 200 to 1000 nM
CSc1c(F)cc2[nH]ncc2c1-c1ccc2nc(NC(=O)[C@@H]3C[C@@H]3F)cn2c1 [Example 296, (1S,2S)-2-fluoro-N-(6-(6-fluoro-5-(methylthio)-1H-indazol-4-yl)imidazo[1,2-a]pyridin-2-yl)cyclopropane-1-carboxamide] | < 100 nM | < 200 nM | 200 to 1000 nM
CC(=O)N(C)c1c(F)c(Cl)c(-c2ccc3nc(NC(=O)[C@@H]4C[C@@H]4F)cn3c2)c2cn[nH]c12 [Example 316, (1S,2S)-N-(6-(5-chloro-6-fluoro-7-(N-methylacetamido)-1H-indazol-4-yl)imidazo[1,2-a]pyridin-2-yl)-2-fluorocyclopropane-1-carboxamide] | < 100 nM | 200 to 1000 nM | > 1000 nM
CCc1c(F)c(SCC(=O)NC)c2[nH]ncc2c1-c1ccc2nc(NC(=O)[C@@H]3C[C@@H]3F)sc2n1 [Example 167, (1S,2S)-N-(5-(5-ethyl-6-fluoro-7-((2-(methylamino)-2-oxoethyl)thio)-1H-indazol-4-yl)thiazolo[5,4-b]pyridin-2-yl)-2-fluorocyclopropane-1-carboxamide] | < 100 nM | 200 to 1000 nM | > 1000 nM
CN(C)c1c(F)c(Cl)c(-c2ccc3nc(NC(=O)[C@@H]4C[C@H]4F)cn3c2)c2cn[nH]c12 [Example 333, (1S,2R)-N-(6-(5-chloro-7-(dimethylamino)-6-fluoro-1H-indazol-4-yl)imidazo[1,2-a]pyridin-2-yl)-2-fluorocyclopropane-1-carboxamide] | < 100 nM | 200 to 1000 nM | 200 to 1000 nM
CCN(C)c1c(F)c(Cl)c(-c2ccn3nc(NC(=O)[C@@H]4C[C@@H]4F)cc3c2)c2cn[nH]c12 [Example 564, (1S,2S)-N-(5-(5-chloro-7-(ethyl(methyl)amino)-6-fluoro-1H-indazol-4-yl)pyrazolo[1,5-a]pyridin-2-yl)-2-fluorocyclopropane-1-carboxamide] | < 100 nM | 200 to 1000 nM | 200 to 1000 nM
CSc1c(F)c(N(C)C)c2[nH]ncc2c1-c1ccn2nc(NC(=O)[C@@H]3C[C@@H]3F)cc2c1 [Example 558, (1S,2S)-N-(5-(7-(dimethylamino)-6-fluoro-5-(methylthio)-1H-indazol-4-yl)pyrazolo[1,5-a]pyridin-2-yl)-2-fluorocyclopropane-1-carboxamide] | < 100 nM | < 200 nM | 200 to 1000 nM
CCN(C)c1c(F)c(SC)c(-c2ccc3nc(NC(=O)[C@@H]4C[C@@H]4F)cn3c2)c2cn[nH]c12 [Example 324, (1S,2S)-N-(6-(7-(ethyl(methyl)amino)-6-fluoro-5-(methylthio)-1H-indazol-4-yl)imidazo[1,2-a]pyridin-2-yl)-2-fluorocyclopropane-1-carboxamide] | < 100 nM | < 200 nM | 200 to 1000 nM
CN(c1c(F)c(Cl)c(-c2ccn3nc(NC(=O)[C@@H]4C[C@@H]4F)cc3c2)c2cn[nH]c12)C1CCC(O)CC1 (stereo partly drawn) [Example 503, (1S,2S)-N-(5-(5-chloro-6-fluoro-7-((4-hydroxycyclohexyl)(methyl)amino)-1H-indazol-4-yl)pyrazolo[1,5-a]pyridin-2-yl)-2-fluorocyclopropane-1-carboxamide] | < 100 nM | 200 to 1000 nM | –
CC(=O)N(C)c1c(F)c(Cl)c(-c2ccn3nc(NC(=O)[C@@H]4C[C@@H]4F)cc3c2)c2cn[nH]c12 [Example 552, (1S,2S)-N-(5-(5-chloro-6-fluoro-7-(N-methylacetamido)-1H-indazol-4-yl)pyrazolo[1,5-a]pyridin-2-yl)-2-fluorocyclopropane-1-carboxamide] | < 100 nM | 200 to 1000 nM | 200 to 1000 nM
CCOc1c(F)c(SC)c(-c2ccc3nc(NC(=O)[C@@H]4C[C@@H]4F)sc3c2)c2cn[nH]c12 [Example 118, (1S,2S)-N-(6-(7-ethoxy-6-fluoro-5-(methylthio)-1H-indazol-4-yl)benzo[d]thiazol-2-yl)-2-fluorocyclopropane-1-carboxamide] | < 100 nM | < 200 nM | –
CN(C)C(=O)c1c(F)c(Cl)c(-c2ccc3nc(NC(=O)[C@@H]4C[C@@H]4F)cn3c2)c2cn[nH]c12 [Example 320, 5-chloro-6-fluoro-4-(2-((1S,2S)-2-fluorocyclopropane-1-carboxamido)imidazo[1,2-a]pyridin-6-yl)-N,N-dimethyl-1H-indazole-7-carboxamide] | < 100 nM | 200 to 1000 nM | –
Cc1c(F)c(C(=O)N(C)C)c2[nH]ncc2c1-c1ccc2nc(NC(=O)[C@@H]3C[C@@H]3F)sc2c1 [Example 134, 6-fluoro-4-(2-((1S,2S)-2-fluorocyclopropane-1-carboxamido)benzo[d]thiazol-6-yl)-N,N,5-trimethyl-1H-indazole-7-carboxamide] | < 100 nM | < 200 nM | > 1000 nM
Cc1c(F)c(N(C)C)c2[nH]ncc2c1-c1ccc2nc(NC(=O)[C@@H]3C[C@@H]3F)sc2c1 [Example 104, (1S,2S)-N-(6-(7-(dimethylamino)-6-fluoro-5-methyl-1H-indazol-4-yl)benzo[d]thiazol-2-yl)-2-fluorocyclopropane-1-carboxamide] | < 100 nM | 200 to 1000 nM | > 1000 nM
CSc1c(F)cc2[nH]ncc2c1-c1ccc2nc(NC(=O)[C@@H]3C[C@@H]3F)sc2c1 [Example 105, (1S,2S)-2-fluoro-N-(6-(6-fluoro-5-(methylthio)-1H-indazol-4-yl)benzo[d]thiazol-2-yl)cyclopropane-1-carboxamide] | < 100 nM | 200 to 1000 nM | > 1000 nM
